Assays:
[1] = test system: HAP1 MTAP-deleted cell line; test: Viability assay, MTAP-deleted cell line; assay type: cell-based; details: Homo sapiens, read-out: HAP1 MTAP deleted viability
Description: Table 1 additionally indicates IC50 values in a viability assay for the MTAP-deleted cell line (column 10), indicating the effect of treatment with compound on cell survival.

[2] = test system: HAP1 MTAP-deleted cell line; test: SDMA in-cell western assay, HAP1 MTAP-deleted; assay type: cell-based; details: for IC50: Homo sapiens, HAP1, SDMA in-cell western, HAP1 MTAP-deleted; for MTAP intact/deleted ratio: SDMA in-cell western
Procedure, shortened: (§1)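 Isogenic HAP1 pair: the MTAP-intact line expresses endogenous MTAP, and the deleted line is MTAP-null. Symmetric dimethylarginine was detected by in-cell western and IC50 values derived for each line.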

PRMT5 [3] = target: T1, PRMT5 (Homo sapiens, UniProt O14744); test: PRMT5 biochemical IC50 assay with MTA as cofactor; details: PRMT5, MTA as cofactor; read-out: MTA IC50
T1 construct: purchased Viva (custom protein)

PRMT5 [4] = target: T1, PRMT5; test: PRMT5 biochemical IC50 assay with no cofactor; details: PRMT5, no cofactor
Description: Table 1 indicates IC50 values (μM) against PRMT5 for exemplary compounds in the presence of SAM as cofactor, with no cofactor, and with MTA as cofactor, respectively (columns 4-6). […] Ki values can be calculated from the IC50 values as described in the Examples section. As detailed in the Examples section, for the assay performed in the presence of SAM, IC50=Ki×1.5 (Ki=IC50/1.5).

PRMT5 [5] = target: T1, PRMT5; test: PRMT5 biochemical IC50 assay with SAM as cofactor; details: PRMT5, SAM as cofactor; read-out: SAM IC50
[6] = test system: HAP1 MTAP-intact cell line; test: SDMA in-cell western assay, HAP1 MTAP-intact; assay type: cell-based; details: Homo sapiens, HAP1, SDMA in-cell western, HAP1 MTAP-intact; read-out: MTAP HAP1 intact IC50
Procedure, shortened: as §1

[7] = HAP1, viability assay, MTAP-deleted cell line
[8] = read-out: HAP1 MTAP deleted IC50
[9] = IC50 ratio HAP1 MTAP-intact vs HAP1 MTAP-deleted
[10] = HAP1, viability, HAP1 MTAP-deleted cell line
[11] = read-out: HAP 1 MTAP deleted IC50
[12] = read-out: No Cofactor/ rel IC50
[13] = IC50 ratio HAP1 MTAP-intact / HAP1 MTAP-deleted

T1 sequence (O14744 whole entry): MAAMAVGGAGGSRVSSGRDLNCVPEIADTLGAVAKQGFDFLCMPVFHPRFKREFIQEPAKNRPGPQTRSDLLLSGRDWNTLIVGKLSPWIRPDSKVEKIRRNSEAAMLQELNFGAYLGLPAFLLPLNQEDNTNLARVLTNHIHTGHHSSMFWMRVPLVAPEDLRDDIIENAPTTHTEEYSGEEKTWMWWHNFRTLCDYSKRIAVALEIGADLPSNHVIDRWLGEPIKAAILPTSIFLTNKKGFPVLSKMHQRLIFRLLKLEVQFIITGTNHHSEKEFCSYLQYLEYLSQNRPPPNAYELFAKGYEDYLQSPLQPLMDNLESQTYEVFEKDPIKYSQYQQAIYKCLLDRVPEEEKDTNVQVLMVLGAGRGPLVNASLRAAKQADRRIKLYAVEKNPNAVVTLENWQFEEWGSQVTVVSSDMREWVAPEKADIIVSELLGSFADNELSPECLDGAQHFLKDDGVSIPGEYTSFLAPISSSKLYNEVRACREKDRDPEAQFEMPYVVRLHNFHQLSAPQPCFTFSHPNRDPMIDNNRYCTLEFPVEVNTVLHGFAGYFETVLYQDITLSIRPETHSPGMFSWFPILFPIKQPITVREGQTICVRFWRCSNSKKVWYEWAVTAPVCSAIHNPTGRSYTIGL
T1 sequence (Q9BQA1 whole entry partner): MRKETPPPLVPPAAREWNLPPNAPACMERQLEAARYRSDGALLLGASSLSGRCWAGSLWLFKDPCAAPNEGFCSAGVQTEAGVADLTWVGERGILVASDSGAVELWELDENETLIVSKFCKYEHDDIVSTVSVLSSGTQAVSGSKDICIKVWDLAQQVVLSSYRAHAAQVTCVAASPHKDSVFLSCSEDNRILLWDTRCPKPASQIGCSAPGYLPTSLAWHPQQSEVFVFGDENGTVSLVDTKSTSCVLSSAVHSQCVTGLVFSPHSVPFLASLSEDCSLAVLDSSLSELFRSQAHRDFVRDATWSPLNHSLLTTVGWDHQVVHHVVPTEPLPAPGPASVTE

Structure (SMILES) | IC50 [2, 8] | IC50 (PRMT5 [3]) | IC50 (PRMT5 [4]; read-out: No Cofactor/rel IC50) | IC50 (PRMT5 [5]) | IC50 [6] | IC50 [2, 11] | IC50 (PRMT5 [4]; [12]) | IC50 [1, 7] | MTAP intact/deleted ratio [2, 9] | IC50 [1, 10] | MTAP intact/deleted ratio [2, 13]
Cc1cc(NC(=O)C(=O)N2C[C@H](C)CC[C@H]2c2cc(F)c3[nH]ncc3c2)cnc1N (single isomer, unassigned) [Compound 1191] | > 1 µM | > 0.5 µM | > 0.5 µM | > 0.5 µM | > 1 µM |  |  | > 10 µM |  |  | 
CCc1cc(NC(=O)C(=O)N2C[C@@H](C)CC[C@@H]2c2ccc3sc(CCN(C)C)nc3c2)cnc1N (single isomer, unassigned) [Compound 1196] | < 0.1 µM | < 0.05 µM | < 0.05 µM | < 0.05 µM | < 0.1 µM |  |  | < 1 µM | A (an IC50 ratio greater than or equal to 10 fold) |  | 
C[C@H]1CC[C@H](c2ccc3cncn3c2)N(C(=O)C(=O)Nc2cnc(N)c(C3CC3)c2)C1 (single isomer, unassigned) [Compound 1205, N-(6-amino-5-cyclopropylpyridin-3-yl)-2-(2-(imidazo[1,5-a]pyridin-6-yl)-5-methylpiperidin-1-yl)-2-oxoacetamide] | < 0.1 µM | < 0.05 µM | < 0.05 µM | < 0.05 µM | 0.1 to 1 µM |  |  | < 1 µM | A (an IC50 ratio greater than or equal to 10 fold) |  | 
C[C@H]1CN(C(=O)C(=O)Nc2cnc(N)c(C3CC3)c2)[C@H](c2ccc3scnc3c2)CC1(F)F (single isomer, unassigned) [Compound 1207] | < 0.1 µM | 0.05 to 0.5 µM | 0.05 to 0.5 µM | 0.05 to 0.5 µM | 0.1 to 1 µM |  |  | < 1 µM | A (an IC50 ratio greater than or equal to 10 fold) |  | 
CCc1cc(NC(=O)C(=O)N2C[C@@H](C)CC[C@@H]2c2ccc(N3CCN(C(C)C)CC3)cc2)cnc1N (single isomer, unassigned) [Compound 1208] | < 0.1 µM | < 0.05 µM | < 0.05 µM | 0.05 to 0.5 µM | 0.1 to 1 µM |  |  | < 1 µM | A (an IC50 ratio greater than or equal to 10 fold) |  | 
Cc1cc(NC(=O)C(=O)N2C[C@H](C)[C@@H](CC(C)C)C[C@H]2c2ccc3scnc3c2)cnc1N (single isomer, unassigned) [Compound 1210] | 0.1 to 1 µM | < 0.05 µM | 0.05 to 0.5 µM | 0.05 to 0.5 µM | > 1 µM |  |  | 1 to 10 µM |  |  | 
COCc1nc2cc([C@H]3CC[C@H](C)CN3C(=O)C(=O)Nc3cnc(N)c(C)c3)ccc2s1 (single isomer, unassigned) [Compound 1211] | < 0.1 µM | < 0.05 µM | 0.05 to 0.5 µM | 0.05 to 0.5 µM | < 0.1 µM |  |  | < 1 µM | A (an IC50 ratio greater than or equal to 10 fold) |  | 
Cc1cc(NC(=O)C(=O)N2C[C@@H](C)[C@@H](OC(F)(F)F)C[C@@H]2c2ccc(F)cc2)cnc1N (single isomer, unassigned) [Compound 1213] | < 0.1 µM | < 0.05 µM | < 0.05 µM | 0.05 to 0.5 µM | 0.1 to 1 µM |  |  | < 1 µM | A (an IC50 ratio greater than or equal to 10 fold) |  | 
C[C@@H]1CC[C@@H](c2ccc3sc(CCN(C)C)nc3c2)N(C(=O)C(=O)Nc2cnc(N)c(C3CC3)c2)C1 (single isomer, unassigned) [Compound 1218] | < 0.1 µM | < 0.05 µM | < 0.05 µM | < 0.05 µM | < 0.1 µM |  |  | < 1 µM | A (an IC50 ratio greater than or equal to 10 fold) |  | 
CCc1cc(NC(=O)C(=O)N2C[C@H](C)CC[C@H]2c2ccc(N3CCN(C(C)C)CC3)cc2)cnc1N (single isomer, unassigned) [Compound 1234] | > 1 µM | > 0.5 µM | > 0.5 µM | > 0.5 µM | > 1 µM |  |  | 1 to 10 µM |  |  | 
CO[C@@H]1C[C@@H](c2ccc3scnc3c2)N(C(=O)C(=O)Nc2cnc(N)c(C3CC3)c2)C[C@@H]1C (single isomer, unassigned) [Compound 1241] |  | > 0.5 µM |  | > 0.5 µM | > 1 µM | > 1 µM | > 0.5 µM |  |  | 1 to 10 µM | 
CCc1cc(NC(=O)C(=O)N2C[C@@H](C)CC[C@@H]2c2ccc(N3CCC4(CCCN(C)C4)CC3)cc2)cnc1N (single isomer, unassigned) [Compound 1243] |  | < 0.05 µM |  | 0.05 to 0.5 µM | 0.1 to 1 µM | < 0.1 µM | < 0.05 µM |  |  | < 1 µM | A (an IC50 ratio greater than or equal to 10 fold)
C[C@@H]1CC[C@@H](c2ccc3sc(CCN(C)C)nc3c2)N(C(=O)C(=O)Nc2cncc(C(N)=O)c2)C1 (single isomer, unassigned) [Compound 1254] |  | < 0.05 µM |  | < 0.05 µM | 0.1 to 1 µM | < 0.1 µM | < 0.05 µM |  |  | < 1 µM | A (an IC50 ratio greater than or equal to 10 fold)
C[C@H]1CCC(c2ccc3sc(C4CCOCC4)nc3c2)N(C(=O)C(=O)Nc2cnc(N)c(C3CC3)c2)C1 (single isomer, unassigned) [Compound 1258] |  | < 0.05 µM |  | 0.05 to 0.5 µM | 0.1 to 1 µM | < 0.1 µM | < 0.05 µM |  |  | < 1 µM | A (an IC50 ratio greater than or equal to 10 fold)
CCc1cc(NC(=O)C(=O)N2C[C@@H](C)CC[C@@H]2c2ccc(N3CCN(C)[C@H](C)C3)nc2)cnc1N (single isomer, unassigned) [Compound 1263] |  | < 0.05 µM |  | 0.05 to 0.5 µM | 0.1 to 1 µM | < 0.1 µM | > 0.5 µM |  |  | < 1 µM | A (an IC50 ratio greater than or equal to 10 fold)

Now from value to compound, other results behind:

IC50 [2, 8] | IC50 (PRMT5 [3]) | IC50 (PRMT5 [4]; read-out: No Cofactor/rel IC50) | IC50 (PRMT5 [5]) | IC50 [6] | IC50 [2, 11] | IC50 (PRMT5 [4]; [12]) | Structure (SMILES) | IC50 [1, 7] | MTAP intact/deleted ratio [2, 9] | IC50 [1, 10] | MTAP intact/deleted ratio [2, 13]
> 1 µM | > 0.5 µM | > 0.5 µM | > 0.5 µM | > 1 µM |  |  | Cc1cc(NC(=O)C(=O)N2C[C@H](C)CC[C@H]2c2ccc(N3CCN(C)CC3)cc2)cnc1N (single isomer, unassigned) [Compound 1193] | > 10 µM |  |  | 
< 0.1 µM | < 0.05 µM | < 0.05 µM | 0.05 to 0.5 µM | 0.1 to 1 µM |  |  | CCc1cc(NC(=O)C(=O)N2C[C@@H](C)CC[C@@H]2c2ccc(N3CC[C@H]4CCN(C)C[C@H]4C3)cc2)cnc1N (single isomer, unassigned) [Compound 1204] | < 1 µM | A (an IC50 ratio greater than or equal to 10 fold) |  | 
< 0.1 µM | < 0.05 µM | < 0.05 µM | < 0.05 µM | < 0.1 µM |  |  | Cc1cc(NC(=O)C(=O)N2C[C@@H](C)CC[C@@H]2c2cccc(N3CCN(C)CC3)c2)cnc1N (single isomer, unassigned) [Compound 1229] | < 1 µM | B (an IC50 ratio greater than or equal to 3 fold but lower than 10 fold) |  | 
 | < 0.05 µM |  | 0.05 to 0.5 µM | 0.1 to 1 µM | < 0.1 µM | < 0.05 µM | C[C@@H]1CC[C@@H](c2ccc3c(cnn3CCN(C)C)c2)N(C(=O)C(=O)Nc2cnc(N)c(C3CC3)c2)C1 (single isomer, unassigned) [Compound 1249] |  |  | < 1 µM | A (an IC50 ratio greater than or equal to 10 fold)
 | < 0.05 µM |  | < 0.05 µM | < 0.1 µM | < 0.1 µM | < 0.05 µM | C[C@H]1CC[C@H](c2ccc3[nH]ncc3c2)N(C(=O)C(=O)Nc2cnc(N)c(C3CC3)c2)C1 (single isomer, unassigned) [Compound 1251] |  |  | < 1 µM | A (an IC50 ratio greater than or equal to 10 fold)
 | < 0.05 µM |  | < 0.05 µM | 0.1 to 1 µM | < 0.1 µM | < 0.05 µM | Cc1cc(NC(=O)C(=O)N2C[C@@H](C)CC[C@@H]2c2cccc(C3CCN(C)CC3)c2)cnc1N (single isomer, unassigned) [Compound 1253] |  |  | < 1 µM | A (an IC50 ratio greater than or equal to 10 fold)
 | < 0.05 µM |  | 0.05 to 0.5 µM | < 0.1 µM | < 0.1 µM | < 0.05 µM | C[C@H]1CC[C@H](c2ccc3sc(C4CCN(C)CC4)nc3c2)N(C(=O)C(=O)Nc2cncc(C(N)=O)c2)C1 (single isomer, unassigned) [Compound 1255] |  |  | < 1 µM | A (an IC50 ratio greater than or equal to 10 fold)

From patent US11999727B2 (Tango Therapeutics, Inc., priority 2020, dated 2024)
